Columns and labels:
Assay type in all cases: cell-based
[1] = system: SOCE, Jurkat E6.1 cells; experiment: SOCE inhibition (thapsigargin/calcium influx, FLIPR); details: Homo sapiens, thapsigargin, calcium chloride
Description: SOCE inhibition: Jurkat E6.1 cells were seeded at a density of 1-2×10^5 cells per well in calcium-4 dye prepared in calcium free HBSS (Sigma, USA). Test compounds from this invention were added to the cells at different concentrations. This was followed by the addition of thapsigargin (TG), a SERCA inhibitor, to empty the stores of calcium. Calcium chloride was added to the cells after 10-30 min to induce calcium influx and the fluorescence was measured for 10 min using the FLIPR-Tetra detection system. Fluorescence was also measured using a plate reader at 485 nm excitation and 520 nm emission (Synergy2, Biotek, USA) after 30-90 minutes of calcium addition. Fluorescence observed in cells treated with Thapsigargin and calcium chloride solution was considered 100% maximal signal and the reduced fluorescent signal observed in the presence of test compounds was expressed as percent inhibition of the maximal signal. The dose response data was analyzed using 4-parametric sigmoidal dose response (variable slope) curve-fit.

[2] = system: NFAT-Luc reporter gene, HEK 293 cells; experiment: NFAT transcriptional activity (NFAT-Luc reporter); details: Homo sapiens, HEK293, thapsigargin
Description: NFAT Transcriptional Activity: HEK 293 cells were stably transfected with a NFAT-Luc reporter gene. 30,000-80,000 cells were seeded per well. Test compounds from this invention were added to the cells at different concentrations. Thapsigargin (TG) was added after 10 mins and the cells were incubated for 4-8 h. NFAT transcriptional activity was measured using BrightGlo reagent (Promega USA). Luminescence observed in cells treated with thapsigargin was considered 100% maximal signal and the reduced fluorescent signal observed in the presence of test compounds was expressed as percent inhibition of the maximal signal. The data was analyzed using 4-parametric sigmoidal dose response (variable slope) curve-fit.

[3] = system: IL-2 secretion, Jurkat T cells; experiment: Inhibition of IL-2 secretion (PHA-stimulated Jurkat T cells, ELISA); details: Homo sapiens; Jurkat T cells stimulated with PHA, 20 to 24 hours
Description: The CRAC channel modulatory activity of the compounds were thus evaluated by measuring the secretion of IL-2 by antigen stimulated T-cells in vitro. Alternatively, such activity can also be evaluated by assay methods known to one skilled in the art.
Inhibition of IL-2 secretion: Jurkat T cells were seeded at a density of 0.5 to 1 million cells per well in RPMI medium. Test compounds from this invention were added to the cells at different concentrations. This was followed by the addition of PHA, a T cell mitogen after 10 minutes.
The cells were then incubated for 20 to 24 hours in a CO2 incubator at 37° C. After incubation with the compounds, cells were centrifuged, collected the supernatant and processed for ELISA to quantitate the amount of IL-2 secreted. A commercial ELISA kit (R&D Systems, Inc. Minneapolis, Minn., USA) was used to estimate the IL-2 concentrations. Amount of IL-2 secreted by cells stimulated with PHA was considered as a 100% maximal signal and the decrease in amount of IL-2 secreted by cells treated with the test compounds was expressed as percent inhibition of the maximal signal. The dose response data was analyzed using 4-parametric sigmoidal dose response (variable slope) curve-fit.

SMILES | IC50 [1] [nM] | IC50 [2] [nM] | IC50 [3] [nM]
COc1ccc(C2=NOC(C)(C)C2=O)cc1-c1ccc(NC(=O)c2c(F)cccc2F)cc1 [Example 15, N-(5′-(5,5-dimethyl-4-oxo-4,5-dihydroisoxazol-3-yl)-2′-methoxy-[1,1′-biphenyl]-4-yl)-2,6-difluorobenzamide] | < 1000 | – | –
Cc1c(C2=NOC(C)(C)C2=O)cccc1-c1ccc(NC(=O)c2c(F)cccc2F)cc1 [Example 29, N-(3′-(5,5-Dimethyl-4-oxo-4,5-dihydroisoxazol-3-yl)-2′-methyl-[1,1′-biphenyl]-4-yl)-2,6-difluorobenzamide] | – | < 500 | < 100
COc1ccc(-c2nn(C)c(=O)o2)cc1-c1ccc(NC(=O)c2c(F)cccc2Cl)cc1 [Example 41, 2-Chloro-6-fluoro-N-(2′-methoxy-5′-(4-methyl-5-oxo-4,5-dihydro-1,3,4-oxadiazol-2-yl)[1,1′-biphenyl]-4-yl)benzamide] | < 1000 | – | –
Cc1nnsc1C(=O)Nc1ccc(-c2cccc(-c3nn(C)c(=O)o3)c2C)cc1 [Example 50, 4-Methyl-N-(2′-methyl-3′-(4-methyl-5-oxo-4,5-dihydro-1,3,4-oxadiazol-2-yl)-[1,1′-biphenyl]-4-yl)-1,2,3-thiadiazole-5-carboxamide] | – | < 500 | –
C=CCOc1ccc(C2=NOC(C)(C)C2=O)cc1-c1ccc(NC(=O)c2c(F)cccc2F)cc1 [Example 132, N-(2′-(allyloxy)-5′-(5,5-dimethyl-4-oxo-4,5-dihydroisoxazol-3-yl)-[1,1′-biphenyl]-4-yl)-2,6-difluorobenzamide] | – | – | 100 to 1000
CNc1ccc(C2=NOC(C)(C)C2=O)cc1-c1ccc(NC(=O)c2c(F)cccc2F)cc1 [Example 135, N-(5′-(5,5-Dimethyl-4-oxo-4,5-dihydroisoxazol-3-yl)-2′-(methylamino)-[1,1′-biphenyl]-4-yl)-2,6-difluorobenzamide] | < 1000 | < 500 | < 100
CN(C)c1ccc(C2=NOC(C)(C)C2=O)cc1-c1ccc(NC(=O)c2c(F)cccc2F)cc1 [Example 136, N-(5′-(5,5-Dimethyl-4-oxo-4,5-dihydroisoxazol-3-yl)-2′-(dimethylamino)-[1,1′-biphenyl]-4-yl)-2,6-difluorobenzamide] | – | – | 100 to 1000
Cc1ccc(C2=NOC(CO)(CCO)C2)cc1-c1ccc(NC(=O)c2c(F)cccc2F)cc1 (centres unmarked) [Example 145, 2,6-Difluoro-N-(5′-(5-(2-hydroxyethyl)-5-(hydroxymethyl)-4,5-dihydroisoxazol-3-yl)-2′-methyl-[1,1′-biphenyl]-4-yl)benzamide] | – | – | > 1000
CCc1ccc(C2=NOC(C)(C)C2=O)cc1-c1ccc(C(=O)Nc2c(F)cccc2F)s1 [Example 157, N-(2,6-Difluorophenyl)-5-(5-(5,5-dimethyl-4-oxo-4,5-dihydroisoxazol-3-yl)-2-ethyl-phenyl)thiophene-2-carboxamide] | – | – | < 100
CCc1ccc(C2=NOC(C)(C)C2=O)cc1-c1ccc(C(=O)Nc2ccncc2C)s1 [Example 158, 5-(5-(5,5-Dimethyl-4-oxo-4,5-dihydroisoxazol-3-yl)-2-ethylphenyl)-N-(3-methylpyridin-4-yl)thiophene-2-carboxamide] | – | – | < 100
COc1ccc(C2=NOC(C)(C)C2=O)cc1-c1ccc(C(=O)Nc2c(F)cccc2F)s1 [Example 160, N-(2,6-Difluorophenyl)-5-(5-(5,5-dimethyl-4-oxo-4,5-dihydroisoxazol-3-yl)-2-methoxy-phenyl)thiophene-2-carboxamide] | < 1000 | – | < 100
CCc1ccc(-c2nn(C)c(=O)o2)cc1-c1ccc(C(=O)Nc2c(F)cccc2F)s1 [Example 171, N-(2,6-Difluorophenyl)-5-(2-ethyl-5-(4-methyl-5-oxo-4,5-dihydro-1,3,4-oxadiazol-2-yl)phenyl)thiophene-2-carboxamide] | – | – | < 100
Cn1nc(-c2ccc(OC(F)F)c(-c3ccc(C(=O)Nc4c(F)cccc4F)s3)c2)oc1=O [Example 173, 5-(2-(Difluoromethoxy)-5-(4-methyl-5-oxo-4,5-dihydro-1,3,4-oxadiazol-2-yl)phenyl)-N-(2,6-difluorophenyl) thiophene-2-carboxamide] | – | – | < 100
Cc1c(-c2nn(C)c(=O)o2)cccc1-c1ccc(C(=O)Nc2c(F)cccc2F)s1 [Example 176, N-(2,6-Difluorophenyl)-5-(2-methyl-3-(4-methyl-5-oxo-4,5-dihydro-1,3,4-oxadiazol-2-yl)phenyl)thiophene-2-carboxamide] | < 1000 | < 500 | < 100

Source: patent US10292981B2, “Oxazoline and isoxazoline derivatives as CRAC modulators” (LUPIN LIMITED, priority 2010, dated 2019)
